# Publication PMC5784979, “Direct comparison of the four aldehyde oxidase enzymes present in mouse gives insight into their substrate specificities” (PLoS ONE, 2018)
# Target: T1, mAOX3 (Mus musculus, UniProt G3X982)
# T1 construct: gene Aox3; recombinant from E. coli TP1000 (plasmid pMMA1), Ni-NTA and Superdex 200 purified, chemically sulfurated, dimer (300 kDa)
# T1 sequence (G3X982 1-1335): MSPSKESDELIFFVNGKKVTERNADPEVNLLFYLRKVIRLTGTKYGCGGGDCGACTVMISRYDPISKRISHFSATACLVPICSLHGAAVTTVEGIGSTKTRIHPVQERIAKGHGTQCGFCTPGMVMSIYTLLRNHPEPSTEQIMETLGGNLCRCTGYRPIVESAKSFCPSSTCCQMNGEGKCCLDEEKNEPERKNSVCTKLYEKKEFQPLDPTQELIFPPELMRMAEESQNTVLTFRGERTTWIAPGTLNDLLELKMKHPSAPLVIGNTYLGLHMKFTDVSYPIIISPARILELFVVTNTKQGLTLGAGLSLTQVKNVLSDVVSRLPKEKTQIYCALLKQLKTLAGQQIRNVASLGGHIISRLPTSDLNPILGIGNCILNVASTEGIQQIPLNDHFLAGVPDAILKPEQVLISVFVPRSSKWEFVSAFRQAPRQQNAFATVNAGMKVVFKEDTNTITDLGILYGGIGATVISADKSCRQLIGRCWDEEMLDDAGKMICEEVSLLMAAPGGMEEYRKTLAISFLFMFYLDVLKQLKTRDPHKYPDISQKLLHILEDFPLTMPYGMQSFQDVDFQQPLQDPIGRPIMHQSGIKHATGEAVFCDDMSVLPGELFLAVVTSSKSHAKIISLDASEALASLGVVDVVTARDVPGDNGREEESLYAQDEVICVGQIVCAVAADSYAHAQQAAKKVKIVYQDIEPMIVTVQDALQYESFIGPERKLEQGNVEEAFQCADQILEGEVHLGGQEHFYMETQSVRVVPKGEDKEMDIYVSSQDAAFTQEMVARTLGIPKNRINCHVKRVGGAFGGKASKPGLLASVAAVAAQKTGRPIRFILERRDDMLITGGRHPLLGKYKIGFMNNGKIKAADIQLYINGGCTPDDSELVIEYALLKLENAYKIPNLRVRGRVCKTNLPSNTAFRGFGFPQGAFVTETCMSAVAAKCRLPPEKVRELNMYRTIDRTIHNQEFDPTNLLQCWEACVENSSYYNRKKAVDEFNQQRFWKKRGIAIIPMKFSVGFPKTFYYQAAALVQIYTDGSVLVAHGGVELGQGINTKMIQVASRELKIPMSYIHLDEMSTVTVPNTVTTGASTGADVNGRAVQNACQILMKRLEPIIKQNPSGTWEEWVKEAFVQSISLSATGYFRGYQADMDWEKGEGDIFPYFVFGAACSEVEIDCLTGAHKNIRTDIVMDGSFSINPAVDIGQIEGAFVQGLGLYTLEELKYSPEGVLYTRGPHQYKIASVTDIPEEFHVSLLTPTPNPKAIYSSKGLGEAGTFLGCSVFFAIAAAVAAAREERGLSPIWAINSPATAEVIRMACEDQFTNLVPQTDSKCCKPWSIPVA
# Assay: DCPIP reduction at […] nm, steady-state kinetics
# Format: biochemical
# Settings: 100 μM DCPIP as electron acceptor, 50 mM Tris-HCl, 1 mM EDTA, pH 8.0, 37°C, corrected to 100% Mo saturation
"Km (range printed jointly for mAOX3, mAOX4 and mAOX2)","Km (limit given jointly for mAOX3, mAOX4 and mAOX2)",SMILES
4.4 to 4.6 mM,–,CC=O [acetaldehyde]
–,< 0.002 mM,O=Cc1ccc(O)cc1 [4-hydroxybenzaldehyde]
